Series [1] relates to NK cells co-cultured with the HT1080-luc tumor cell line. Put plainly: Cytokine secretion assay (IFN-gamma, TNF-alpha; NK:HT1080-luc co-culture). It is filed as cell-based, human. Conditions: for TNF-alpha and IFN-gamma production from NK cells: 2 nM construct, Luminex, FIG. 11. As for the experimental part: (§1) Heterotandem bicyclic peptide complexes were evaluated for NK functional readouts (cytotoxicity and cytokine secretion) in NK-tumor cell line co-cultures.
NK cells were isolated using a negative isolation kit (STEMCELL Technologies® 17955) from the total PBMC population purified from whole blood. NK cell pellet was then resuspended in DMEM medium (Corning™ 10-013-CV) with 10% heat-inactivated fetal bovine serum (FBS; Corning® 35-011-CV), 10 mM HEPES (Gibco™ 15-630-080), and 1% Penicillin Streptomycin (Corning™ 30-002-CI), and 50 IU/mL human IL-2 (Miltenyi Biotec® 130-097-748), at a concentration of 4×10^5 cells/mL. For the NK cell cytokine secretion assay, […] NK cell in 50 μl cell suspension were plated in the 96-well U-bottom plate (Grenier Bio One™ 650180) containing 50 μl (4×10^4) HT1080-luc cells (ATCC® CCL-121-luc2) in DMEM (Gibco™ 11875-093; with L-glutamine) with 10% heat-inactivated fetal bovine serum (FBS; Corning® 35-011-CV), 10 mM HEPES (Gibco™ 15-630-080), and 1% Penicillin Streptomycin (Corning™ 30-002-CI). […] The plates were then incubated for 4 hours at 37° C., 5% CO2. Post-incubation, plates was centrifuged at 250×g for 5 minutes and 100 μl supernatant harvested. Samples were immediately stored at −20° C. or assessed for cytokine levels. Interferon-gamma or TNF-alpha levels were measured in 50 μl of collected supernatants through the Human IFN-gamma Quantikine™ ELISA kit (R&D Systems DIF50C) or Human TNF-alpha Quantikine™ ELISA kit (R&D Systems DTAOOD). Data was acquired at wavelength of 450 nm on CLARIOstar® plate-reader and was fit to a four-parameter non-linear regression in CLARIOstar® plate reader MARS Data Analysis™ software and analyzed with GraphPad Prism™ 8.0.2 software to quantify to cytokine levels. Alternatively, TNF-alpha and IFN-gamma cytokine were measured from 25 μl of collected supernatant by Luminex Assay: Human XL Cytokine Discovery Premixed Kit (R&D Systems, FCS™ 18-05) Luminex 200™ flow instrument and xPONENT™ analysis software.

Series [2] in a line: NK cytotoxicity assay (NK:HT1080-luc co-culture, luciferase readout). It is filed as cell-based, human. Conditions: NK:HT1080-luc co-culture, 24 hours, four-parameter logistic regression; FIGS. 2-4, 6-8, 10; read-out: EC50 NK cytotoxicity (tumor cell killing). As for the experimental part: as §1
(§2) NK cells were isolated using a negative isolation kit (STEMCELL™ Technologies 17955) from the total PBMC population purified from whole blood. NK cell pellet was then resuspended in DMEM medium (Corning™ 10-013-CV) with 10% heat-inactivated fetal bovine serum (FBS; Corning® 35-011-CV), 10 mM HEPES (Gibco™ 15-630-080), and 1% Penicillin Streptomycin (Corning™ 30-002-CI), and 50 IU/mL human IL-2 (Miltenyi Biotec® 130-097-748), at a concentration of 4×10^5 cells/mL. For the NK cell cytotoxicity assays, 50 μL (2×10^4) of cell suspension was plated in the 96-well plate (Grenier® Bio One™ 655090) containing 50 μl (4×10^3) HT1080-luc cells (ATCC® CCL-121-luc2) in DMEM (Gibco™ 11875-093; with L-glutamine) with 10% heat-inactivated fetal bovine serum (FBS; Corning® 35-011-CV), 10 mM HEPES (Gibco™ 15-630-080), and 1% Penicillin Streptomycin (Corning™ 30-002-CI). […] The plates were then incubated for 24 hours at 37° C., 5% CO2. Post-incubation, plates was centrifuged at 250×g for 5 minutes and 100 μl supernatant discarded. Samples were then incubated 10 minutes with 50 μl Bright-Glo™ Luciferase Assay system (Promega™ E2620). Luminescence upon excitation at 570 nm was read using a CLARIOstar® plate-reader with MARS Data Analysis Software™. Data was fit to a four-parameter non-linear regression in GraphPad Prism™ 8.0.2 to generate an EC50 value.

The next series deals with HT1080-luc cells. Described as above. The class given is cell-based, human. Conditions: in comparison to NK:HT1080-luc co-culture without heterotandem complex (NK-TICA). As for the experimental part: as §1, §2
In series [3] the target is EPH receptor A2 (ephrin type-A receptor 2) (human) (UniProt P29317). Put plainly: cell-based or functional assay.
A further series addresses NKp46 (human) (UniProt O76036). The series can be described thus: cell-based or functional assay.

Starred links: 1 amine or outer side, 2 acyl side, 3 side chain; linkers in the order of their positions; H or OH if unused. Positions of bridges follow the written chain, without caps; N, C: chain ends. Non-standard residues stand in square brackets, D forms with d. Residues, ends and D or L forms follow the SMILES beside them. Chains are numbered I, II in the order given. No end group written: not given here. *: point of attachment. TATA = O=C(CC[*:1])N1CN(C(=O)CC[*:2])CN(C(=O)CC[*:3])C1; X2 = O=C(CCOCCOCCOCCOCCOCCn1cc(CCC(=O)[*:2])nn1)[*:1]; Hyp = O=C(O)[C@@H]1C[C@@H](O)CN1; hArg = N=C(N)NCCCC[C@H](N)C(=O)O; Cba = N[C@@H](CC1CCC1)C(=O)O; Pent4ynoyl = C#CCCC(=O)*

Chain of EPH receptor A2 (ephrin type-A receptor 2) (human) (P29317 24-976): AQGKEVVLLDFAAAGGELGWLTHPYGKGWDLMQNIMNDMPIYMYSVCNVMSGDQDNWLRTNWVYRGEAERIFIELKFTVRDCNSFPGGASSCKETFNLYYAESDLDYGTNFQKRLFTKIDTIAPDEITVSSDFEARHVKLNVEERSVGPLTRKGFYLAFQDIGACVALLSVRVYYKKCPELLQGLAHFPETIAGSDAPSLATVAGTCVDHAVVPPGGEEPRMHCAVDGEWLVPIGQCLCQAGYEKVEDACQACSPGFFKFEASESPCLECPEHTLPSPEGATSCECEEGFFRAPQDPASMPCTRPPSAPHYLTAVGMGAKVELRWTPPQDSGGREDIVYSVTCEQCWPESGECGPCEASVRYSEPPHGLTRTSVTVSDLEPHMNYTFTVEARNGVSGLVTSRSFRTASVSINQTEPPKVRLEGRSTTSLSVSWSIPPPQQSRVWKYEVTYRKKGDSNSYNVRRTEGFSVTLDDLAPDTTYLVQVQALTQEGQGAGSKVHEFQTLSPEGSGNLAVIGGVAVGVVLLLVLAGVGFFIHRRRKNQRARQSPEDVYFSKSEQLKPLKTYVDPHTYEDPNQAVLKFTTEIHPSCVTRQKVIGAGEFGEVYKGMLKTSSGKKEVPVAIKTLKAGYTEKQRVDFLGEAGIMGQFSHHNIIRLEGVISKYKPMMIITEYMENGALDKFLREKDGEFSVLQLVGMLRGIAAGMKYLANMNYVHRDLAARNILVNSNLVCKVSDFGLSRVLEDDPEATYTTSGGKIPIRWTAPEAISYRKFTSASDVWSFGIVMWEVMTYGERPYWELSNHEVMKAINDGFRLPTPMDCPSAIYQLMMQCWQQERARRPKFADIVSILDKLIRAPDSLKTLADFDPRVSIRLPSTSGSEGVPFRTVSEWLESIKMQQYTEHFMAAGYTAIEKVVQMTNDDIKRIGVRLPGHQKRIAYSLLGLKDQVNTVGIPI
Chain of NKp46 (human) (O76036 22-304): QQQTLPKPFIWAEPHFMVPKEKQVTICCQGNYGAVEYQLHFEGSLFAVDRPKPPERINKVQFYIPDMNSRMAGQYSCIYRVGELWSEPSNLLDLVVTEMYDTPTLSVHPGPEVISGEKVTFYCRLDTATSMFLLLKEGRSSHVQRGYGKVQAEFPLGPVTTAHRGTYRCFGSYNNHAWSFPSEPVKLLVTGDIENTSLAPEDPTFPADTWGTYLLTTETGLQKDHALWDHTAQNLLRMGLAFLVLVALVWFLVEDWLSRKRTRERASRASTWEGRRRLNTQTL

Consider “BCY18048: EphA2 specific peptide BCY9594 linked to two NKp46 specific peptides (BCY17662) via N-(acid-PEG3)-N-bis(PEG3-azide) linker (peptide 1 A[hArg]DC[Hyp]LVNPLCLHP[dD]W[hArg]C; peptide 2 ACYLPDYLC[dK](Pent4ynoyl)DEYCA; linker I:4-I:11-I:18, II:2-II:9-II:14 via TATA; also: chain 1 N-terminus and chain 2 D-Lys(PYA) joined through N-(acid-PEG3)-N-bis(PEG3-azide) linker, two copies of chain 2)”, for which the “secretion of IFN-gamma and TNF-alpha by NK cells” value in series [1] (10 nM construct, ELISA, FIG. 12) was “induced secretion of IFN-gamma and TNF-alpha”.

In general, EC50 refers to the concentration giving half of the maximal effect. Consider `CC(=O)N[C@H]1CSCCC(=O)N2CN3CN(C2)C(=O)CCSC[C@H](NC(=O)[C@H](CC(C)C)NC(=O)[C@H](Cc2ccc(O)cc2)NC(=O)[C@H](CC(=O)O)NC(=O)[C@@H]2CCCN2C(=O)[C@H](CC2CCC2)NC(=O)[C@H](Cc2ccc(O)cc2)NC1=O)C(=O)N[C@H](C)C(=O)N[C@@H](CC(=O)O)C(=O)N[C@@H](CCC(=O)O)C(=O)N[C@@H](Cc1ccc(O)cc1)C(=O)N[C@H](C(=O)N[C@@H](CCCCNC(=O)CCc1cn(CCOCCOCCOCCOCCNC(=O)CCOCC(COCCC(=O)NCCOCCOCCOCCOCCn2cc(CCC(=O)NCCCC[C@H](NC(=O)[C@@H]4CSCCC(=O)N5CN6CN(C5)C(=O)CCSC[C@H](NC(=O)[C@H](CC(C)C)NC(=O)[C@H](Cc5ccc(O)cc5)NC(=O)[C@H](CC(=O)O)NC(=O)[C@@H]5CCCN5C(=O)[C@H](CC5CCC5)NC(=O)[C@H](Cc5ccc(O)cc5)NC(=O)[C@@H](NC(C)=O)CSCCC6=O)C(=O)N[C@H](C)C(=O)N[C@@H](CC(=O)O)C(=O)N[C@@H](CCC(=O)O)C(=O)N[C@@H](Cc5ccc(O)cc5)C(=O)N4)C(N)=O)nn2)(COCCC(=O)NCCOCCOCCOCCOCCn2cc(CCC(=O)NCCCC[C@H](NC(=O)[C@@H]4CSCCC(=O)N5CN6CN(C5)C(=O)CCSC[C@H](NC(=O)[C@H](CC(C)C)NC(=O)[C@H](Cc5ccc(O)cc5)NC(=O)[C@H](CC(=O)O)NC(=O)[C@@H]5CCCN5C(=O)[C@H](CC5CCC5)NC(=O)[C@H](Cc5ccc(O)cc5)NC(=O)[C@@H](NC(C)=O)CSCCC6=O)C(=O)N[C@H](C)C(=O)N[C@@H](CC(=O)O)C(=O)N[C@@H](CCC(=O)O)C(=O)N[C@@H](Cc5ccc(O)cc5)C(=O)N4)C(N)=O)nn2)NC(=O)CCOCCOCCOCCOCCOCCC(=O)N[C@@H](C)C(=O)N[C@@H](CCCCNC(=N)N)C(=O)N[C@@H](CC(=O)O)C(=O)N[C@H]2CSCCC(=O)N4CN5CN(C4)C(=O)CCSC[C@H](NC(=O)[C@H](CC(C)C)NC(=O)[C@@H]4CCCN4C(=O)[C@H](CC(N)=O)NC(=O)[C@H](C(C)C)NC(=O)[C@H](CC(C)C)NC(=O)[C@@H]4C[C@@H](O)CN4C2=O)C(=O)N[C@@H](CC(C)C)C(=O)N[C@@H](Cc2c[nH]cn2)C(=O)N2CCC[C@H]2C(=O)N[C@H](CC(=O)O)C(=O)N[C@@H](Cc2c[nH]c4ccccc24)C(=O)N[C@@H](CCCCNC(=N)N)C(=O)N[C@H](C(N)=O)CSCCC5=O)nn1)C(N)=O)CSCCC3=O` [BCY21686], for which the concentration giving a half-maximal response (EC50) in series [2] amounted to 1.3 pM. Also, the “effect on tumor cell killing by NK cells, in words” value with HT1080-luc cells was “enhanced, dose-dependent effect in tumor cell killing”. Besides, the “TNF-alpha and IFN-gamma production from NK cells” value in series [1] is listed as “Cytokine production from NK cells was observed”.

As for `CC(=O)N[C@H]1CSCCC(=O)N2CN3CN(C2)C(=O)CCSC[C@H](NC(=O)[C@H](CC(C)C)NC(=O)[C@H](Cc2ccc(O)cc2)NC(=O)[C@H](CC(=O)O)NC(=O)[C@@H]2CCCN2C(=O)[C@H](CC2CCC2)NC(=O)[C@H](Cc2ccc(O)cc2)NC1=O)C(=O)N[C@H](C)C(=O)N[C@@H](CC(=O)O)C(=O)N[C@@H](CCC(=O)O)C(=O)N[C@@H](Cc1ccc(O)cc1)C(=O)N[C@H](C(=O)N[C@@H](CCCCNC(=O)CCc1cn(CCOCCOCCOCCOCCOCCC(=O)N[C@@H](C)C(=O)N[C@@H](CCCCNC(=N)N)C(=O)N[C@@H](CC(=O)O)C(=O)N[C@H]2CSCCC(=O)N4CN5CN(C4)C(=O)CCSC[C@H](NC(=O)[C@H](CC(C)C)NC(=O)[C@@H]4CCCN4C(=O)[C@H](CC(N)=O)NC(=O)[C@H](C(C)C)NC(=O)[C@H](CC(C)C)NC(=O)[C@@H]4C[C@@H](O)CN4C2=O)C(=O)N[C@@H](CC(C)C)C(=O)N[C@@H](Cc2c[nH]cn2)C(=O)N2CCC[C@H]2C(=O)N[C@H](CC(=O)O)C(=O)N[C@@H](Cc2c[nH]c4ccccc24)C(=O)N[C@@H](CCCCNC(=N)N)C(=O)N[C@H](C(N)=O)CSCCC5=O)nn1)C(N)=O)CSCCC3=O` [BCY17225] (I: A[hArg]DC[Hyp]LVNPLCLHP[dD]W[hArg]C-NH2 / II: Ac-CY[Cba]PDYLC[dA]DEYCK-NH2; linker I:4-I:11-I:18, II:1-II:8-II:13 via TATA; linker I:N-II:14 via X2; C-terminus assumed), in series [2], the 50% effective concentration (EC50) was 3.6 pM. Besides, the “effect on tumor cell killing by NK cells, in words” value in the series on HT1080-luc cells is listed as “enhanced, dose-dependent effect in tumor cell killing”. The “TNF-alpha and IFN-gamma production from NK cells” value in series [1] is reported as “Cytokine production from NK cells was observed”.

Take “BCY21687: EphA2 specific peptide BCY9594 linked to three NKp46 specific peptides (BCY17224) via Methane-N-(PEG10-acid)-Tri(MeOPr-amide-PEG10-azide) linker (peptide 1 A[hArg]DC[Hyp]LVNPLCLHP[dD]W[hArg]C; peptide 2 Ac-CY[Cba]PDYLC[dA]DEYCK(Pent4ynoyl); linker I:4-I:11-I:18, II:1-II:8-II:13 via TATA; also: chain 1 N-terminus and chain 2 K(PYA) joined through Methane-N-(PEG10-acid)-Tri(MeOPr-amide-PEG10-azide) linker, three copies of chain 2)”: in series [1], the “TNF-alpha and IFN-gamma production from NK cells” value is given as “Cytokine production from NK cells was observed”.

B1: heterotandem bicyclic peptide complex BCY15923 (peptide)
peptide 1: A[hArg]DC[Hyp]LVNPLCLHP[dD]W[hArg]C
peptide 2: ACDLTTHNCQWGICAK(Pent4ynoyl)
modifications: linker I:4-I:11-I:18, II:2-II:9-II:14 via TATA; also: EphA2:NKp46 1:2, two copies of chain 2 on the linker, X5, X17: HyP or HArg, linker at chain B 16 to a chain's N-terminus via N-(acid-PEG3)-N-bis(PEG3-azide) linker
B1: the EC50, NK cytotoxicity assay (HT1080-luc luminescence) (in series [3]; with NKp46 (human)) was 44 pM each time.

B2: heterotandem bicyclic peptide complex BCY17226 (peptide)
peptide 1: AXDCXLVNPLCLHPDWXC
peptide 2: CYXPDYLCADEYCK
modifications: BCY17224: N-terminal acetyl; Cba (beta-cyclobutylalanine) and dA (D-Ala) within SEQ ID NO: 5; C-terminal Lys(PYA) joined to the linker azide; Ci, Cii, Ciii cyclised on TATA scaffold; BCY9594: HArg (homoarginine) as 2nd residue of the N-terminal extension; HyP, dD and HArg within SEQ ID NO: 2; Ci, Cii, Ciii cyclised on TATA scaffold; N-terminus joined to the linker
B2 yielded an EC50, NK cytotoxicity assay (HT1080-luc luminescence) in series [3] of 6.1 pM.

(Values after patent US20240197897A1, “HETEROTANDEM BICYCLIC PEPTIDE COMPLEXES” (Bicycle Tx Limited, priority 2021, published 2024).)
